How the values were obtained:
[1] = biological target: Tyrosine-protein kinase Blk (Homo sapiens) (UniProt P51451); assay: Inhibition of N-terminal GST-fused full length human BLK (1 to 505 residues) expressed in baculovirus-infected Sf21 cells using Srctide as substrate at 1 uM in presence of ATP by Mobility shift assay
[2] = biological target: Discoidin domain-containing receptor 2 (Homo sapiens) (UniProt Q16832); assay: Inhibition of N-terminal GST-fused human DDR2 cytoplasmic domain (422 to 855 residues) expressed in baculovirus-infected Sf21 cells using IRS1 as substrate at 1 uM in presence of ATP by Mobility shift assay
[3] = biological target: Ephrin type-A receptor 4 (Homo sapiens) (UniProt P54764); assay: Inhibition of N-terminal GST-fused human EPHA4 cytoplasmic domain (586 to 986 residues) expressed in baculovirus-infected Sf21 cells using Blk/Lyntide as substrate at 1 uM in presence of ATP by Mobility shift assay
[4] = biological target: Ephrin type-A receptor 5 (Homo sapiens) (UniProt P54756); assay: Inhibition of N-terminal GST-fused human EPHA5 catalytic domain (662 to 948 residues) expressed in baculovirus-infected Sf21 cells using Blk/Lyntide as substrate at 1 uM in presence of ATP by Mobility shift assay
[5] = biological target: Ephrin type-B receptor 3 (Homo sapiens) (UniProt P54753); assay: Inhibition of N-terminal GST-fused human EPHB3 cytoplasmic domain (596 to 998 residues) expressed in baculovirus-infected Sf21 cells using Blk/Lyntide as substrate at 1 uM in presence of ATP by Mobility shift assay
[6] = biological target: Fibroblast growth factor receptor 3 (Homo sapiens) (UniProt P22607); assay: Inhibition of N-terminal GST-fused human FGFR3 cytoplasmic domain (436 to 806 residues) expressed in baculovirus-infected Sf21 cells using CSKtide as substrate at 1 uM in presence of ATP by Mobility shift assay
[7] = biological target: Insulin receptor (Homo sapiens) (UniProt P06213); assay: Inhibition of N-terminal fused human INSR catalytic domain (1005 to 1310 residues) expressed in baculovirus-infected Sf21 cells using IRS1 as substrate at 1 uM in presence of ATP by Mobility shift assay
[8] = biological target: Tyrosine-protein kinase ITK/TSK (Homo sapiens) (UniProt Q08881); assay: Inhibition of N-terminal GST-fused full length human ITK (2 to 620 residues) expressed in baculovirus-infected Sf21 cells using Srctide as substrate at 1 uM in presence of ATP by Mobility shift assay
[9] = biological target: Platelet-derived growth factor receptor beta (Homo sapiens) (UniProt P09619); assay: Inhibition of N-terminal GST-tagged human PDGFR-beta cytoplasmic domain (557 to 1106 residues) expressed in baculovirus-infected Sf21 cells using CSKtide as substrate at 1 uM in presence of ATP by Mobility shift assay
[10] = biological target: Tyrosine-protein kinase Yes (Homo sapiens) (UniProt P07947); assay: Inhibition of N-terminal GST-tagged full length human YES (1 to 543 residues) expressed in baculovirus-infected Sf21 cells using Srctide as substrate at 1 uM in presence of ATP by Mobility shift assay
[11] = biological target: Tyrosine-protein kinase ZAP-70 (Homo sapiens) (UniProt P43403); assay: Inhibition of N-terminal GST-tagged full length human ZAP70 (1 to 619 residues) expressed in baculovirus-infected Sf21 cells using Blk/Lyntide as substrate at 1 uM in presence of ATP by Mobility shift assay
[12] = biological target: Calcium/calmodulin-dependent protein kinase type II subunit gamma (Homo sapiens) (UniProt Q13555); assay: Inhibition of N-terminal GST-tagged full length human CAMK2g (1 to 518 residues) expressed in baculovirus-infected Sf21 cells using GS peptide as substrate at 1 uM in presence of ATP by Mobility shift assay
[13] = biological target: CDK3/Cyclin E (Homo sapiens) (UniProt P24864+Q00526); assay: Inhibition of N-terminal GST-tagged full length human CDK3 (1 to 305 residues)/N-terminal GST-tagged human CyclinE1 (1 to 410 residues) expressed in baculovirus-infected Sf21 cells using Modified Histone H1 as substrate at 1 uM in presence of ATP by Mobility shift assay
[14] = biological target: cGMP-dependent protein kinase 2 (Homo sapiens) (UniProt Q13237); assay: Inhibition of N-terminal GST-fused full length human CGK2 (1 to 762 residues) expressed in baculovirus expression system using Kemptide as substrate at 1 uM in presence of ATP by Mobility shift assay
[15] = biological target: Casein kinase II alpha/beta (Homo sapiens) (UniProt P67870+P68400); assay: Inhibition of N-terminal GST-fused full length human CK2alpha1 (1 to 391 residues)/His-tagged human CK2beta (1 to 215 residues) expressed in baculovirus expression system using CK2tide as substrate at 1 uM in presence of ATP by Mobility shift assay
[16] = biological target: Serine/threonine-protein kinase Nek7 (Homo sapiens) (UniProt Q8TDX7); assay: Inhibition of N-terminal GST-fused full length human NEK7 (1 to 302 residues) expressed in baculovirus expression system using CDK7 peptide as substrate at 1 uM in presence of ATP by Mobility shift assay
[17] = biological target: NUAK family SNF1-like kinase 2 (Homo sapiens) (UniProt Q9H093); assay: Inhibition of N-terminal GST-fused full length human Nuak2 (1 to 628 residues) expressed in baculovirus expression system using CHKtide as substrate at 1 uM in presence of ATP by Mobility shift assay
[18] = biological target: [Pyruvate dehydrogenase (acetyl-transferring)] kinase isozyme 2, mitochondrial (Homo sapiens) (UniProt Q15119); assay: Inhibition of N-terminal GST-fused full length human PDHK2 (1 to 407 residues) expressed in baculovirus expression system using PDHKtide as substrate at 1 uM in presence of ATP by Mobility shift assay
[19] = biological target: cGMP-dependent protein kinase 1 (Homo sapiens) (UniProt Q13976); assay: Inhibition of N-terminal GST-fused human full length […] (1 to 686 residues) expressed in baculovirus expression system using Kemptide as substrate at 1 uM in presence of ATP by Mobility shift assay
[20] = biological target: Serine/threonine-protein kinase pim-3 (Homo sapiens) (UniProt Q86V86); assay: Inhibition of N-terminal GST-tagged full length human PIM3 (1 to 326 residues) expressed in baculovirus expression system using S6K2 peptide as substrate at 1 uM in presence of ATP by Mobility shift assay
[21] = biological target: Protein kinase C zeta type (Homo sapiens) (UniProt Q05513); assay: Inhibition of N-terminal GST-fused human full length PKC-zeta (1 to 592 residues ) expressed in baculovirus expression system using PKC peptide as substrate at 1 uM in presence of ATP by Mobility shift assay
[22] = biological target: TRAF2 and NCK-interacting protein kinase (Homo sapiens) (UniProt Q9UKE5); assay: Inhibition of N-terminal GST-fused human TNIK catalytic domain (1 to 314 residues) expressed in baculovirus expression system using Moesin-derived peptide as substrate at 1 uM in presence of ATP by Mobility shift assay

Chain of Serine/threonine-protein kinase Nek7 (Homo sapiens) (Q8TDX7 whole entry, looked up, the tested form may be a part): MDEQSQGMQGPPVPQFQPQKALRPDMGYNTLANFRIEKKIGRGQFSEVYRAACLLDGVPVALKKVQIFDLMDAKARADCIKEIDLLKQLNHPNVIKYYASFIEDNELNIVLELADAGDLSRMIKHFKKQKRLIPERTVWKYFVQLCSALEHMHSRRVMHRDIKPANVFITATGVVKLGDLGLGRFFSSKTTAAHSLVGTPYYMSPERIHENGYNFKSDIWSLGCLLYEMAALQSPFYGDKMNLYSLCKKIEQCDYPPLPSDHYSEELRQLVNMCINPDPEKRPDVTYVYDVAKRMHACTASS
Chain of Discoidin domain-containing receptor 2 (Homo sapiens) (Q16832 whole entry, the tested form may be a part): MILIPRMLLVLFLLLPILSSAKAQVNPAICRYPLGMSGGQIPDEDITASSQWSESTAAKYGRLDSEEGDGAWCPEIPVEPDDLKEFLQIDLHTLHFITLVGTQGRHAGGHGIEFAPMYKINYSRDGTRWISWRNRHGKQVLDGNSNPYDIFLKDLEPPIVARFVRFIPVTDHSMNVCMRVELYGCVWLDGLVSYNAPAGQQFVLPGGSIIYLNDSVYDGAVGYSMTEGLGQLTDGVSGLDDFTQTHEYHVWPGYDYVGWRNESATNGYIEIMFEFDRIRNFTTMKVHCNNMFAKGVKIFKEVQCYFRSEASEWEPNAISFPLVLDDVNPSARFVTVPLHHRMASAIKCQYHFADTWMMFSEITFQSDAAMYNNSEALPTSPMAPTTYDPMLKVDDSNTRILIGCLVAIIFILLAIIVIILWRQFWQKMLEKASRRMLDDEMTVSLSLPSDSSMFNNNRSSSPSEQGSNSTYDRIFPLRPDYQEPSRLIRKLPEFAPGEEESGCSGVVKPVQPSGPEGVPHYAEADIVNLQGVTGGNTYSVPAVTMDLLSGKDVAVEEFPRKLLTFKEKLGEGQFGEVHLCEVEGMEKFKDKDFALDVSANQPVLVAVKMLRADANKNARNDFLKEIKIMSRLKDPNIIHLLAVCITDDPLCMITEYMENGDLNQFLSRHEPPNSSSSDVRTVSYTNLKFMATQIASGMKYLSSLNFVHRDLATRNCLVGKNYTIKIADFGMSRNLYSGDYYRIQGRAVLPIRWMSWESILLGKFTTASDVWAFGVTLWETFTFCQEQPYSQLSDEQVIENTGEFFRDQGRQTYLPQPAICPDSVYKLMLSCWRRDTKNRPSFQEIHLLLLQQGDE
Chain of cGMP-dependent protein kinase 2 (Homo sapiens) (Q13237 whole entry, the tested form may be a part): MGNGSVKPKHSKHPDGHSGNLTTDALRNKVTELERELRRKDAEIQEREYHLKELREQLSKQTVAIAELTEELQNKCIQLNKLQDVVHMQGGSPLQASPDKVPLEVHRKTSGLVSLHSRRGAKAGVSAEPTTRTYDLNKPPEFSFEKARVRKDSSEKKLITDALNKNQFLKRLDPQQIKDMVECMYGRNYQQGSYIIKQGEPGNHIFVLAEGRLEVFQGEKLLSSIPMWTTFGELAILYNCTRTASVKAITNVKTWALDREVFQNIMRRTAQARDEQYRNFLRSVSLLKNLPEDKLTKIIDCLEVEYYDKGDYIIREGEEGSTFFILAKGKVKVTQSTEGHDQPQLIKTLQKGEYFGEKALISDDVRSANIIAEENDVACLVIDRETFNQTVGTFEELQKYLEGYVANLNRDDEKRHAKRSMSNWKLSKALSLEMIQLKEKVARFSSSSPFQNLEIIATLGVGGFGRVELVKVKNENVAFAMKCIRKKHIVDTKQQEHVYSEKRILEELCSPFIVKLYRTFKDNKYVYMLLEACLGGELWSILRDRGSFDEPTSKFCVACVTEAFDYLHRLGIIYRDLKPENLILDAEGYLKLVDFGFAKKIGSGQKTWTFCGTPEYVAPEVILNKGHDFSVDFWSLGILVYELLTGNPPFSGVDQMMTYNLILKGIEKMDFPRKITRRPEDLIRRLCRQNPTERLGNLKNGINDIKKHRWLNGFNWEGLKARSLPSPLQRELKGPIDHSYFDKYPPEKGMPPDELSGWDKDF
Chain of Tyrosine-protein kinase ITK/TSK (Homo sapiens) (Q08881 whole entry, the tested form may be a part): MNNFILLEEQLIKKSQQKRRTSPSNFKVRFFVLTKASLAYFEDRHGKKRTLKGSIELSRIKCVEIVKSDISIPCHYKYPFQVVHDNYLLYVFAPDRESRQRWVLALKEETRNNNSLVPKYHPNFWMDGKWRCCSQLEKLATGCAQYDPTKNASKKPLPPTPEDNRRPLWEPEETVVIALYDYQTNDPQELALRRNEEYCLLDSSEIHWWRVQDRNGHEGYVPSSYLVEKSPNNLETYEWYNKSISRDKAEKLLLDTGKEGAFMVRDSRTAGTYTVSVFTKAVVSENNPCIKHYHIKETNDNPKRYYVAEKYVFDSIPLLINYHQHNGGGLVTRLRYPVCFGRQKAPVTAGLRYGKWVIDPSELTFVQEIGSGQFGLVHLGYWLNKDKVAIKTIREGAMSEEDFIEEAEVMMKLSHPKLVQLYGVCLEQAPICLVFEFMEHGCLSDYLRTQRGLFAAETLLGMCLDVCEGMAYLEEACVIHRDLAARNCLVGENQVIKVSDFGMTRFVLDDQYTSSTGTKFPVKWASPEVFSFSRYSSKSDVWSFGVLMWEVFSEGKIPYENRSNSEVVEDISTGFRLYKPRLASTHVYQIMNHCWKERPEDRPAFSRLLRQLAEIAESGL
Chain of cGMP-dependent protein kinase 1 (Homo sapiens) (Q13976 whole entry, the tested form may be a part): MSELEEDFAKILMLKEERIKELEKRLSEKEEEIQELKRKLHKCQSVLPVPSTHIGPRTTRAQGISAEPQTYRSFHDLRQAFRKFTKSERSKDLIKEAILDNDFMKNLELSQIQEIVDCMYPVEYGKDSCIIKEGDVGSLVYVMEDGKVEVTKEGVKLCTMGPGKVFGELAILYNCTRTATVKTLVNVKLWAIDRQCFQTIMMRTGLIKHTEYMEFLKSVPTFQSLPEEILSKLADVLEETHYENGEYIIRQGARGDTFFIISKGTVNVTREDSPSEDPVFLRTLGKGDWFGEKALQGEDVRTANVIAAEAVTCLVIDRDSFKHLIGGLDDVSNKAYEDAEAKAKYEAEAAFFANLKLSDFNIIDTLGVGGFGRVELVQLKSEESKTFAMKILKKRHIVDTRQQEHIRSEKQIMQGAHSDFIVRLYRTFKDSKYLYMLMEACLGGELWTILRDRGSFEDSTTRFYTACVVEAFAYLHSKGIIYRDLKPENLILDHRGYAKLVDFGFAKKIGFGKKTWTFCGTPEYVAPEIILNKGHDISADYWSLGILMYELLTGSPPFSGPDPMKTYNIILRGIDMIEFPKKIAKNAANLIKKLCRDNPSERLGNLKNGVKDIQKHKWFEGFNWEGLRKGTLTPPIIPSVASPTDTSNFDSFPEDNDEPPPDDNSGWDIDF
Chain of Platelet-derived growth factor receptor beta (Homo sapiens) (P09619 whole entry, the tested form may be a part): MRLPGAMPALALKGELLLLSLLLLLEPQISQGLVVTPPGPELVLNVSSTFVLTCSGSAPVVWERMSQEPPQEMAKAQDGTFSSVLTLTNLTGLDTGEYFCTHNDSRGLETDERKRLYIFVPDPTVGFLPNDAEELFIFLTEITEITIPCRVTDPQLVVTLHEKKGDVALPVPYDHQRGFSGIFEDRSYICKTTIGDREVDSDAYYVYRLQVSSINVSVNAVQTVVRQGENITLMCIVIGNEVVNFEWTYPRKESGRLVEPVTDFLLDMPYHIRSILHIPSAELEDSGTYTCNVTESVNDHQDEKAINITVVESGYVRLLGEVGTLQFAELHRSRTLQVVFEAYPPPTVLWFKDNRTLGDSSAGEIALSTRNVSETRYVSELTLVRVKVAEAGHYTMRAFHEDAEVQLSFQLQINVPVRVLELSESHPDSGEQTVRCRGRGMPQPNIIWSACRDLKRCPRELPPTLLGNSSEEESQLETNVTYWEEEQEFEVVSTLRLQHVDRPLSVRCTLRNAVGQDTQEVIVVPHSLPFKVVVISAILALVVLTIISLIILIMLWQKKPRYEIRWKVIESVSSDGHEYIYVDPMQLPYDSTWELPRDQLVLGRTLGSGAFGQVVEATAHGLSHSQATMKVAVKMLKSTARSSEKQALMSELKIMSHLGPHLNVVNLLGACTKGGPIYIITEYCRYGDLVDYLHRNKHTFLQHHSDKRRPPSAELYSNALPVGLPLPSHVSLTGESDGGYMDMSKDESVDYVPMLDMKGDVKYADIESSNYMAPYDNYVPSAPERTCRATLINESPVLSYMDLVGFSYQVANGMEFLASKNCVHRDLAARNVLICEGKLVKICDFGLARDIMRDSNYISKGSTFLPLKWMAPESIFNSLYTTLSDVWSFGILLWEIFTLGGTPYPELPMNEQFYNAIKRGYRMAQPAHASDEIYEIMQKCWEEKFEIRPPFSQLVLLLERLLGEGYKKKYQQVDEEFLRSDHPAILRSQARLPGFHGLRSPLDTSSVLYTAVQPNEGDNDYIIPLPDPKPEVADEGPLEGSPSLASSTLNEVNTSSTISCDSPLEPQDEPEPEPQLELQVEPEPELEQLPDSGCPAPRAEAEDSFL
Chain of Tyrosine-protein kinase Yes (Homo sapiens) (P07947 2-543 limits assumed): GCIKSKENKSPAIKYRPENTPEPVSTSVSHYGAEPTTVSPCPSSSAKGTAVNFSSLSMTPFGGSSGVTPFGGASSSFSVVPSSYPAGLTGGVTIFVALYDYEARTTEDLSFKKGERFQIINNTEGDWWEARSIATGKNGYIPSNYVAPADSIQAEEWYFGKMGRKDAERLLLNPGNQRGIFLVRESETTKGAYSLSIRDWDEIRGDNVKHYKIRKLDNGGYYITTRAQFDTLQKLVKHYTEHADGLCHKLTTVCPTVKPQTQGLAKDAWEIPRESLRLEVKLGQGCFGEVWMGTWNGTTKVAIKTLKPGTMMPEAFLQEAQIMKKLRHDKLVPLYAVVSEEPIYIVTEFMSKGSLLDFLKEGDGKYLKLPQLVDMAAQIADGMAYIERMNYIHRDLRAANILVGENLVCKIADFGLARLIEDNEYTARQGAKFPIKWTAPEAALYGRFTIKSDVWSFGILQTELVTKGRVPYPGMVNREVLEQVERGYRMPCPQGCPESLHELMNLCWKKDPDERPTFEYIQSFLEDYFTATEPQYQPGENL

Q: Which results are given for `Cc1cc(C)c(CNC(=O)c2cc(Br)c3c(c2C)O[C@@](C)([C@H]2CC[C@H](N(C)C)CC2)O3)c(=O)[nH]1`?
A: inhibition [1]: -3.1%; inhibition [2]: -0.2%; inhibition [3]: -4.3%; inhibition [4]: -6.3%; inhibition [5]: -4.4%; inhibition [6]: -1.9%; inhibition [7]: 4.8%; inhibition [8]: -5.6%; inhibition [9]: -1.3%; inhibition [10]: -1.6%; inhibition [11]: -6.2%; inhibition [12]: -4.8%; inhibition [13]: -1%; inhibition [14]: -2.3%; inhibition [15]: -5.8%; inhibition [16]: 2.8%; inhibition [17]: -4%; inhibition [18]: 1.6%; inhibition [19]: -4.3%; inhibition [20]: 5.7%; inhibition [21]: 3.2%; inhibition [22]: 1.1%

Q: `Cc1cc(C)c(CNC(=O)c2cc(Cl)c3c(c2C)O[C@@](C)([C@H]2CC[C@H](N(C)C)CC2)O3)c(=O)[nH]1` [VALEMETOSTAT] was tested. Which inhibition [1] did it give?
A: Its inhibition is -5%.

Q: And the inhibition [2]?
A: Its inhibition is -2.8%.

Q: What about the inhibition [3] of the same compound?
A: The inhibition was -3%.

Q: What about the inhibition [4] of the same compound?
A: Its inhibition is -3.4%.

Q: What about the inhibition [5] of the same compound?
A: Its inhibition is -5.9%.

Q: And the inhibition [6]?
A: The inhibition was -2.3%.

Q: What about the inhibition [7] of the same compound?
A: Its inhibition is 0.1%.

Q: And the inhibition [8]?
A: The inhibition was -5.8%.

Q: What about the inhibition [9] of the same compound?
A: Its inhibition is -4.5%.

Q: What about the inhibition [10] of the same compound?
A: The inhibition was -1.8%.

Q: And the inhibition [11]?
A: Its inhibition is -5.4%.

Q: And the inhibition [12]?
A: The inhibition was -5.4%.

Q: And the inhibition [13]?
A: The inhibition was -0.2%.

Q: What about the inhibition [14] of the same compound?
A: The inhibition was -4.3%.

Q: And the inhibition [15]?
A: The inhibition was -4%.

Q: And the inhibition [16]?
A: The inhibition was 1.6%.

Q: What about the inhibition [17] of the same compound?
A: The inhibition was 2.1%.

Q: And the inhibition [18]?
A: The inhibition was 1.4%.

Q: What about the inhibition [19] of the same compound?
A: The inhibition was -2.1%.

Q: And the inhibition [20]?
A: The inhibition was 5.9%.

Q: What about the inhibition [21] of the same compound?
A: The inhibition was 9.3%.

Q: And the inhibition [22]?
A: Its inhibition is 0.3%.
